Laboratory results as given in patent US9359349B2, “Substituted quinazolines as kinase inhibitors” (Intellikine LLC, priority 2007, dated 2016).
Read-outs that look alike come from different tables or passages of the source.

What was measured:
PI3K α (p110α/p85α) = target: T1, PI3K α (p110α/p85α) (Homo sapiens, UniProt P42336); experiment: PI3K α (p110α/p85α) inhibition assay; format: biochemical
T1 construct: purchased Upstate
Experimental: (§1) Class I PI3-Ks can be either purchased (p110α/p85α, p110β/p85α, p110δ/p85α from Upstate, and p110γ from Sigma) or expressed as previously described (Knight at al., 2004). IC50 values are measured using either a standard TLC assay for lipid kinase activity (described below) or a high-throughput membrane capture assay. Kinase reactions are performed by preparing a reaction mixture containing kinase, inhibitor (2% DMSO final concentration), buffer (25 mM HEPES, pH 7.4, 10 mM MgCl2), and freshly sonicated phosphatidylinositol (100 μg/ml). Reactions are initiated by the addition of ATP containing 10 μCi of γ-32P-ATP to a final concentration 10 or 100 μM and allowed to proceed for 5 minutes at room temperature. For TLC analysis, reactions are then terminated by the addition of 105 μl 1N HCl followed by 160 μl CHCl3:MeOH (1:1). The biphasic mixture is vortexed, briefly centrifuged, and the organic phase is transferred to a new tube using a gel loading pipette tip precoated with CHCl3. This extract is spotted on TLC plates and developed for 3-4 hours in a 65:35 solution of n-propanol: 1M acetic acid. The TLC plates are then dried, exposed to a phosphorimager screen (Storm, Amersham), and quantitated. For each compound, kinase activity is measured at 10-12 inhibitor concentrations representing two-fold dilutions from the highest concentration tested (typically, 200 μM).
(§2) Other commercial kits or systems for assaying PI3-K activities are avaiable. The commercially available kits or systems can be used to screen for inhibitors and/or agonists of PI3-Ks including but not limited to PI 3-Kinase α, β, δ, and γ. Anr exemplary system is PI 3-Kinase (human) HTRF™ Assay from Upstate. […] Briefly, the assay is a time resolved FRET assay that indirectly measures PIP3 product formed by the activity of a PI3-K. The kinase reaction is performed in a microtitre plate (e.g., a 384 well microtitre plate). The total reaction volume is approximately 20 ul per well. In the first step, each well receives 2 ul of test compound in 20% dimethylsulphoxide resulting in a 2% DMSO final concentration. Next, approximately 14.5 ul of a kinase/PIP2 mixture (diluted in 1× reaction buffer) is added per well for a final concentration of 0.25-0.3 ug/ml kinase and 10 uM PIP2. The plate is sealed and incubated for 15 minutes at room temperature. To start the reaction, 3.5 ul of ATP (diluted in 1× reaction buffer) is added per well for a final concentration of 10 uM ATP. The plate is sealed and incubated for 1 hour at room temperature. The reaction is stopped by adding 5 ul of Stop Solution per well and then 5 ul of Detection Mix is added per well. The plate is sealed, incubated for 1 hour at room temperature, and then read on an appropriate plate reader. Data is analyzed and IC50s are generated using GraphPad Prism 5.

mTOR = target: T2, mTOR (Homo sapiens, UniProt P42345); experiment: mTOR inhibition assay; format: biochemical
T2 construct: purchased Invitrogen
Experimental: The compounds described herein can be tested against recombinant mTOR (Invitrogen) in an assay containing 50 mM HEPES, pH 7.5, 1 mM EGTA, 10 mM MgCl2, 2.5 mM, 0.01% Tween, 10 μM ATP (2.5 μCi of […]), and 3 μg/mL BSA. Rat recombinant PHAS-1/4EBP1 (Calbiochem; 2 mg/mL) is used as a substrate. Reactions are terminated by spotting onto nitrocellulose, which is washed with 1M NaCl/1% phosphoric acid (approximately 6 times, 5-10 minutes each). Sheets are dried and the transferred radioactivity quantitated by phosphorimaging.
Other kits or systems for assaying mTOR activity are commercially avaiable. For instance, one can use Invitrogen's LanthaScreen™ Kinase assay to test the inhibitors of mTOR disclosed herein. This assay is a time resolved FRET platform that measures the phosphorylation of GFP labeled 4EBP1 by mTOR kinase. The kinase reaction is performed in a white 384 well microtitre plate. The total reaction volume is 20 ul per well and the reaction buffer composition is 50 mM HEPES pH7.5, 0.01% Polysorbate 20, 1 mM EGTA, 10 mM MnCl2, and 2 mM DTT. In the first step, each well receives 2 ul of test compound in 20% dimethylsulphoxide resulting in a 2% DMSO final concentration. Next, 8 ul of mTOR diluted in reaction buffer is added per well for a 60 ng/ml final concentration. To start the reaction, 10 ul of an ATP/GFP-4EBP1 mixture (diluted in reaction buffer) is added per well for a final concentration of 10 uM ATP and 0.5 uM GFP-4EBP1. The plate is sealed and incubated for 1 hour at room temperature. The reaction is stopped by adding 10 ul per well of a Tb-anti-pT46 4EBP1 antibody/EDTA mixture (diluted in TR-FRET buffer) for a final concentration of 1.3 nM antibody and 6.7 mM EDTA. The plate is sealed, incubated for 1 hour at room temperature, and then read on a plate reader set up for LanthaScreen™ TR-FRET. Data is analyzed and IC50s are generated using GraphPad Prism 5.

PI3K δ (p110δ/p85α) = target: T3, PI3K δ (p110δ/p85α) (Homo sapiens, UniProt O00329); experiment: PI3K δ (p110δ/p85α) inhibition assay; format: biochemical
T3 construct: purchased Upstate
T3 sequence (O00329 whole entry): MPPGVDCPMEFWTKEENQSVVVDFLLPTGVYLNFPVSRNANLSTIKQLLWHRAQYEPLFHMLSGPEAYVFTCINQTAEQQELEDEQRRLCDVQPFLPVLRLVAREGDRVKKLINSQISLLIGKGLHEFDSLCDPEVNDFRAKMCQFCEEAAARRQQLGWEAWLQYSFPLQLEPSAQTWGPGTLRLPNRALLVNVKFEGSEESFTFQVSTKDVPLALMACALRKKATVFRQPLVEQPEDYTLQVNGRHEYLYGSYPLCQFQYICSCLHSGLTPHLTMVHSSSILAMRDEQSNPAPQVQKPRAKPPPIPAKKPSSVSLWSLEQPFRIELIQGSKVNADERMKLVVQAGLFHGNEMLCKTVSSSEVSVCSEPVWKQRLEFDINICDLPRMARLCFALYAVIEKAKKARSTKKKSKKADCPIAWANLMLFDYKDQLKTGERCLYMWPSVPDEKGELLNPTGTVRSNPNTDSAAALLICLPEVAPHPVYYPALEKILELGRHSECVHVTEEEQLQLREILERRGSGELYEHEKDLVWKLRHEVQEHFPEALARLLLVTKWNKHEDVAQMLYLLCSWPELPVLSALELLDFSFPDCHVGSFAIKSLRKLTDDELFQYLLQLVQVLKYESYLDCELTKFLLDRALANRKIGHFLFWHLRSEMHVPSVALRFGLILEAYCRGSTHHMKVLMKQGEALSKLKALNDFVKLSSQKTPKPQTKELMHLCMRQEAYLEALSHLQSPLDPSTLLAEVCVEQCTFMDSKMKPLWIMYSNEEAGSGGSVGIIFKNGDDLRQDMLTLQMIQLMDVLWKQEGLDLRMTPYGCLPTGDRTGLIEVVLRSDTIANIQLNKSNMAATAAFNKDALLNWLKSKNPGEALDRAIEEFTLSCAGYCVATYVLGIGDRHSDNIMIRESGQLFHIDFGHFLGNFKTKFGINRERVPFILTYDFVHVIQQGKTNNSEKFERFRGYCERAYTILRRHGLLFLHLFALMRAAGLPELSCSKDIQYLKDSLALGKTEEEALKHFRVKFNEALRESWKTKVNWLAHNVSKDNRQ
T3 sequence (P27986 whole entry partner): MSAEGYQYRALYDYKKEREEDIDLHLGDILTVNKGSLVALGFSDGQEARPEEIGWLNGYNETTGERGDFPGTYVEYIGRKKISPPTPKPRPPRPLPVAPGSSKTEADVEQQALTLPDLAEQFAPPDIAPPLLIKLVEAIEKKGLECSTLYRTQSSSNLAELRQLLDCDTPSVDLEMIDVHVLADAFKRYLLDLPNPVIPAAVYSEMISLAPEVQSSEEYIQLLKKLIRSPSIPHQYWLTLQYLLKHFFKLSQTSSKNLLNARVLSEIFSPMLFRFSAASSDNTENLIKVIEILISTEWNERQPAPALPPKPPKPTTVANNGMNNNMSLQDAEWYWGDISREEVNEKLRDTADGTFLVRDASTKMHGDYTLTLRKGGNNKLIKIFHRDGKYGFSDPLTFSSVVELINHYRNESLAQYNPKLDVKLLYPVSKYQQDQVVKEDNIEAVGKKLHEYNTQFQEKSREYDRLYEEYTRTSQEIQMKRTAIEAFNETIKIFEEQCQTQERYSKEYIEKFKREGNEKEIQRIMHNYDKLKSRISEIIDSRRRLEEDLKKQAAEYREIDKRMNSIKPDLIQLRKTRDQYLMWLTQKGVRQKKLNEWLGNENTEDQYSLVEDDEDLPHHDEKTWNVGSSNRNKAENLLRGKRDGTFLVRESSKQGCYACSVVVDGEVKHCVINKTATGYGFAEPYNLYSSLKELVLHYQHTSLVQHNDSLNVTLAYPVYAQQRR
Experimental: as §1, with “IC50” for “Class I PI3-Ks can be either purchased (p110α/p85α, p110β/p85α, p110δ/p85α from Upstate, and p110γ from Sigma) or expressed as previously described (Knight at al., 2004). IC50”, “quantitated.” for “quantitated. For each compound, kinase activity is measured at 10-12 inhibitor concentrations representing two-fold dilutions from the highest concentration tested (typically, 200 μM).”
as §2

PI3K γ (p110γ) = target: T4, PI3K γ (p110γ) (Homo sapiens, UniProt P48736); experiment: PI3K γ (p110γ) inhibition assay; format: biochemical
T4 construct: purchased Sigma
T4 sequence (P48736 whole entry): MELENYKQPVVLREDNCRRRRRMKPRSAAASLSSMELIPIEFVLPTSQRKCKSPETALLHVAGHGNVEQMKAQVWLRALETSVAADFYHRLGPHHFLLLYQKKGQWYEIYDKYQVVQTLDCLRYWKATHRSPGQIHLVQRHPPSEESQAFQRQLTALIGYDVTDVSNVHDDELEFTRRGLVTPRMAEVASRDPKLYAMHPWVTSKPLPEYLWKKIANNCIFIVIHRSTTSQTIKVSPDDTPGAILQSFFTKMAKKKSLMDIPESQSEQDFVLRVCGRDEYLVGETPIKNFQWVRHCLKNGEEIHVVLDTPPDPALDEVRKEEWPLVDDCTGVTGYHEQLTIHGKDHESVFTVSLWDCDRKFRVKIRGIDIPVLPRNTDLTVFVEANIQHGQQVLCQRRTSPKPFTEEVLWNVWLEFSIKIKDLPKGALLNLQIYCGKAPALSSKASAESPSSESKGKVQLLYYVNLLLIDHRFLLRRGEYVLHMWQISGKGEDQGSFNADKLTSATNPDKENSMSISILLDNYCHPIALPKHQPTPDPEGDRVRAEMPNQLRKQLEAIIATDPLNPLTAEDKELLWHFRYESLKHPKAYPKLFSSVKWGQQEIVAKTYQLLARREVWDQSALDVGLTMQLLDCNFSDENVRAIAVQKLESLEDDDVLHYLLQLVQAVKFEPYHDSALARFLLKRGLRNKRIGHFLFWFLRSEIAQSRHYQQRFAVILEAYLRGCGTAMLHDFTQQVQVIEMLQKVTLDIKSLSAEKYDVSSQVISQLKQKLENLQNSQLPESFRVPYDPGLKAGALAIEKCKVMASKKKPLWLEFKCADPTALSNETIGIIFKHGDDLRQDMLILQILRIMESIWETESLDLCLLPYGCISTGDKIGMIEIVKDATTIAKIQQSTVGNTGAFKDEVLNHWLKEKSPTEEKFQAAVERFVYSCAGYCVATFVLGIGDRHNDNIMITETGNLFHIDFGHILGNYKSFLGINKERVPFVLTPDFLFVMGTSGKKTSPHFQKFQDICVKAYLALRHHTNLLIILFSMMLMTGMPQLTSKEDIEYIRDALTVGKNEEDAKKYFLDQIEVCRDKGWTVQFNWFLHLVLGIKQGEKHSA
Experimental: as §1, §2

PI3K β (p110β/p85α) = target: T5, PI3K β (p110β/p85α) (Homo sapiens, UniProt P42338); experiment: PI3K β (p110β/p85α) inhibition assay; format: biochemical
T5 construct: purchased Upstate
T5 sequence (P42338 whole entry): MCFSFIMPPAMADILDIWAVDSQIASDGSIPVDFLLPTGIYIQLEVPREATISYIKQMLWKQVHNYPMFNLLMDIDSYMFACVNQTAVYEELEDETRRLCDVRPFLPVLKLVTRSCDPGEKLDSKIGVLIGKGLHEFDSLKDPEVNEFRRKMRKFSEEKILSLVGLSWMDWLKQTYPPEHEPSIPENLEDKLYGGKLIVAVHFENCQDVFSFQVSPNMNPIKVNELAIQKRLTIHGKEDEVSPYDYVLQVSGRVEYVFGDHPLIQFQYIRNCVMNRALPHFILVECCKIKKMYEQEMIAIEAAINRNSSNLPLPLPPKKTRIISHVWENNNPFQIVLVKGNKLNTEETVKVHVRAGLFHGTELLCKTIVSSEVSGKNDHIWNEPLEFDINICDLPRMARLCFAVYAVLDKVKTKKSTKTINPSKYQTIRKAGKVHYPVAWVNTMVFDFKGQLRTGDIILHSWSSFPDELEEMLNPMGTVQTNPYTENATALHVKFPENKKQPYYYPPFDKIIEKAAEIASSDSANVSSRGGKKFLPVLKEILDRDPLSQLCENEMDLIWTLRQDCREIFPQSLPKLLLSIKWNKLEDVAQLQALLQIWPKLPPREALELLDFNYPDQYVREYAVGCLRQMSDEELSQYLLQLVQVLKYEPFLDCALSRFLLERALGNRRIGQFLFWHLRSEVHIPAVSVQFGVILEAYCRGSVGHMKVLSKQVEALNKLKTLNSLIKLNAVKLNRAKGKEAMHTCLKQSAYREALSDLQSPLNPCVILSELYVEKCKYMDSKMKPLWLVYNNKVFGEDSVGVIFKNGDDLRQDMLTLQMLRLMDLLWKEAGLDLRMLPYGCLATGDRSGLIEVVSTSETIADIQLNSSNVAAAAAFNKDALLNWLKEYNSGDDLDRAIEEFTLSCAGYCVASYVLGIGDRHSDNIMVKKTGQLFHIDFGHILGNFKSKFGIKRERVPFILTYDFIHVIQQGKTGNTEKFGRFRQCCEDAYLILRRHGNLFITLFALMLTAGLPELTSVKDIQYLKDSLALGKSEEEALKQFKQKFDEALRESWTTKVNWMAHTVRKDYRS
T5 sequence (P27986 whole entry partner): as the sequence (P27986 whole entry partner) above
Experimental: as §1, §2

PC-3 = experiment: Tumor cell line proliferation assay (Alamar Blue), PC-3; format: cell-based; settings: Homo sapiens; PC-3 cells
Experimental: The ability of one or more subject compounds to inhibit tumor cell line proliferation is determined according to standard procedures known in the art. For instance, an in vitro cellular proliferation assay can be performed to measure the metabolic activity of live cells. The assay is performed in a 96 well microtiter plate using Alamar Blue reduction. Human tumor cell lines are obtained from ATCC (e.g., MCF7, U-87 MG, MDA-MB-468, PC-3), grown to confluency in T75 flasks, trypsinized with 0.25% trypsin, washed one time with Tumor Cell Media (DMEM+10% FBS), and plated in 90 ul at 5,000 cells/well in Tumor Cell Media. A compound disclosed herein is diluted in Tumor Cell Media and added in a 10 ul volume. Plates are incubated for 72 hours at 37 C and 5% CO2. A volume of 10 uL of Alamar Blue reagent is added to each well and plates are incubated for 3 hours at 37 C and 5% CO2. Alamar Blue fluoresce is read at 560Ex/590Em, and IC50 values are calculated using GraphPad Prism 5.

T1 sequence (P42336 whole entry): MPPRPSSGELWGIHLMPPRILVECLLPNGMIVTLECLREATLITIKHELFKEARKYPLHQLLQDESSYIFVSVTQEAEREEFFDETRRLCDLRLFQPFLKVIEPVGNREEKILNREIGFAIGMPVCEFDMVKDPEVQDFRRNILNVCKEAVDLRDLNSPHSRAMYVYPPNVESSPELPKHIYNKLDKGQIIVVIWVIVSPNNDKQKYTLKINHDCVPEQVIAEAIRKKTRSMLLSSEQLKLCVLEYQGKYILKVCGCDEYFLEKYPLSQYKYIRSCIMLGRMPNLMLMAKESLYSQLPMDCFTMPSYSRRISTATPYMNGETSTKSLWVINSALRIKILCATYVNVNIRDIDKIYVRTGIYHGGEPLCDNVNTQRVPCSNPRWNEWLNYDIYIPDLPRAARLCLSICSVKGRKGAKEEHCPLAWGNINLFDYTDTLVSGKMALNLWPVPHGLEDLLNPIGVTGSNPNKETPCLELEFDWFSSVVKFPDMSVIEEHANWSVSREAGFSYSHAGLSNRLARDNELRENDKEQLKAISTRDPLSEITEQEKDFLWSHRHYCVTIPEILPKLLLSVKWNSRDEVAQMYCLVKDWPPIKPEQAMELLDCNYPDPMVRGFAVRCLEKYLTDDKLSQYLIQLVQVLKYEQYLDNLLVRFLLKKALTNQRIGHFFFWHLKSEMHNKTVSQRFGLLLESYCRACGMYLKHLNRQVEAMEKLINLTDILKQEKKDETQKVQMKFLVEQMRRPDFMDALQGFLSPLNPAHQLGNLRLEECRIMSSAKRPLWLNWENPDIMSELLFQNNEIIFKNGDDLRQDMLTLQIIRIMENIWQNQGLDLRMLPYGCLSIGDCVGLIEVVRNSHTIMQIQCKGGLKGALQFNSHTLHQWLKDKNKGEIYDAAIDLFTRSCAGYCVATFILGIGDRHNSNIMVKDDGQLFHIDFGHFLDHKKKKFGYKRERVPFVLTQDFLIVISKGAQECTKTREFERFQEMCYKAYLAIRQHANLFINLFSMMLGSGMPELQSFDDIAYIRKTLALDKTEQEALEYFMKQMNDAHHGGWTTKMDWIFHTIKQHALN
T1 sequence (P27986 whole entry partner): as the sequence (P27986 whole entry partner) above

Structure (SMILES) | IC50 (PI3K α (p110α/p85α)) [µM] | IC50 (mTOR) [µM] | IC50 (PI3K δ (p110δ/p85α); read-out: PI3K δ IC50) [µM] | IC50 (PI3K γ (p110γ)) [µM] | IC50 (PI3K β (p110β/p85α)) [µM] | EC50 (PC-3) [µM] | IC50 (PI3K δ (p110δ/p85α)) [µM]
Cc1nc(N)nc2ccc(-c3cccc(O)c3)cc12 [Compound 4] | < 0.5 | > 1 | < 0.1 | < 0.1 | < 0.5 | ≤ 20 | 
CNc1nc(C)c2cc(-c3ccc(O)c(Cl)c3)ccc2n1 [Compound 10] | < 1 | > 1 |  |  |  | ≤ 20 | 
Nc1ncc2cc(-c3cccc(O)c3)ccc2n1 [Compound 3] | < 0.5 | > 1 |  |  |  | ≤ 50 | 
CNc1nc(C)c2cc(-c3ccc(O)c(F)c3)ccc2n1 [Compound 11] | < 1 | > 1 |  |  |  | ≤ 50 | 
CNc1nc(C)c2cc(-c3cccc(O)c3)ccc2n1 [Compound 1] | < 0.5 | > 1 | < 0.5 | < 0.1 | > 1 | ≤ 50 | 
Cc1nc(Nc2cccnc2)nc2ccc(-c3cccc(O)c3)cc12 [Compound 6] | < 0.1 | > 1 | < 0.1 | < 0.1 | > 1 | ≤ 50 | 
Cc1nc(N)nc2ccc(-c3cnc4[nH]ccc4c3)cc12 [Compound 5] | < 1 | > 1 |  |  |  | ≤ 50 | 
CNc1nc(C)c2cc(-c3cc(O)cc(F)c3)ccc2n1 [Compound 8] | < 0.5 | > 1 |  | < 0.1 | < 1 | ≤ 20 | < 0.1
CNc1nc(C)c2cc(-c3cnc4[nH]ccc4c3)ccc2n1 [Compound 2] | < 1 | > 1 | > 1 | < 0.5 | > 1 | ≤ 50 | 
Cc1nc(Nc2cccnc2)nc2ccc(-c3cc(O)cc(F)c3)cc12 [Compound 7] | < 0.1 | > 1 | < 0.1 | < 0.1 | > 1 | ≤ 20 | 
CNc1nc(C)c2cc(-c3ccc(F)c(O)c3)ccc2n1 [Compound 9] | < 1 | > 1 |  |  |  | ≤ 20 | 
